Measured values published in ChEMBL document CHEMBL1152625, “Pochonicine, a polyhydroxylated pyrrolizidine alkaloid from fungus Pochonia suchlasporia var. suchlasporia TAMA 87 as a potent beta-N-acetylglucosaminidase inhibitor” (Bioorg Med Chem, 2009).
pIC50, pKi: −log10 of the molar value. Calls of active or inactive are those of the source. No cut-off for these calls is given here.

Columns and labels:
Bacillus sp. = assay: Inhibition of Bacillus sp. chitinase at 209 uM by pNP-GlcNAc2 substrate hydrolysis assay
[1] = Mixed type inhibition of Penicillium oxalicum beta-N-acetylglucosaminidase by pNP-GlcNAc substrate hydrolysis assay
[2] = Inhibition of bovine kidney beta-N-acetylglucosaminidase by pNP-GlcNAc substrate hydrolysis assay; design: species or system Bos taurus
[3] = Inhibition of Penicillium oxalicum beta-N-acetylglucosaminidase by pNP-GlcNAc substrate hydrolysis assay
[4] = Competitive inhibition of jack bean beta-N-acetylglucosaminidase by pNP-GlcNAc substrate hydrolysis assay; design: species or system Canavalia ensiformis
Saccharomyces cerevisiae = assay: Inhibition of yeast alpha-glucosidase at 2.38 uM by […] substrate hydrolysis assay
Prunus dulcis = assay: Inhibition of almond beta-glucosidase at 2.38 uM by pNP-beta-Glc substrate hydrolysis assay
[5] = Noncompetitive inhibition of bovine kidney beta-N-acetylglucosaminidase by pNP-GlcNAc substrate hydrolysis assay; design: species or system Bos taurus
[6] = Inhibition of Spodoptera litura beta-N-acetylglucosaminidase by pNP-GlcNAc substrate hydrolysis assay
[7] = Competitive inhibition of Spodoptera litura beta-N-acetylglucosaminidase by pNP-GlcNAc substrate hydrolysis assay
[8] = Noncompetitive inhibition of Aspergillus oryzae beta-N-acetylglucosaminidase by pNP-GlcNAc substrate hydrolysis assay
[9] = Inhibition of jack bean beta-N-acetylglucosaminidase by pNP-GlcNAc substrate hydrolysis assay; design: species or system Canavalia ensiformis
[10] = Inhibition of Aspergillus oryzae beta-N-acetylglucosaminidase by pNP-GlcNAc substrate hydrolysis assay
[11] = Competitive inhibition of bovine kidney beta-N-acetylglucosaminidase by pNP-GlcNAc substrate hydrolysis assay; design: species or system Bos taurus
[12] = Competitive inhibition of Aspergillus oryzae beta-N-acetylglucosaminidase by pNP-GlcNAc substrate hydrolysis assay
[13] = Competitive inhibition of Penicillium oxalicum beta-N-acetylglucosaminidase by pNP-GlcNAc substrate hydrolysis assay

| Structure (SMILES) | Activity (Bacillus sp.) | pKi [1] | pIC50 [2] | pIC50 [3] | pKi [4] | Activity (Saccharomyces cerevisiae) | Activity (Prunus dulcis) | pKi [5] | pIC50 [6] | pKi [7] | pKi [8] | pIC50 [9] | pIC50 [10] | pKi [11] | pKi [12] | pKi [13] | pKi [2] | pKi [9] |
| --- | --- | --- | --- | --- | --- | --- | --- | --- | --- | --- | --- | --- | --- | --- | --- | --- | --- | --- |
| CC(=O)NC[C@H]1[C@H](O)[C@H](O)[C@@H]2[C@H](O)C[C@@H](CO)N21 (relative stereo) [POCHONICINE] | inactive | 7.88 | 8.97 | 7.38 | 9.79 | inactive | inactive | 8.98 | 8.22 | 8.75 | 6.85 | 9.54 | 7.69 |  |  |  |  |  |
| CC(=O)N[C@H]1c2nc(CC(=O)O)cn2[C@H](CO)[C@H](O)[C@@H]1O [NAGSTATIN] |  |  | 8.77 | 7.22 | 8.85 |  |  |  | 8.23 | 8.96 |  |  | 7.97 | 8.79 | 8.01 | 8.09 |  |  |
| CC(=O)NC[C@@H]1N[C@H](CO)[C@@H](O)[C@@H]1O |  |  |  |  |  |  |  |  |  |  |  |  |  |  |  |  | 4.16 | 5.44 |
| CC(=O)NC[C@H]1N[C@H](CO)[C@@H](O)[C@@H]1O |  |  |  |  |  |  |  |  |  |  |  |  |  |  |  |  | 5.01 | 5.72 |
